From ChEMBL document CHEMBL4196079, “Molecular interaction of novel benzothiazolyl triazolium analogues with calf thymus DNA and HSA-their biological investigation as potent antimicrobial agents” (Eur J Med Chem, 2018) come the findings set out here.

In brackets after ≈: the same amount, converted by molar mass. A value given as a limit tells only on which side of the number the result lay.

As a reminder, the MIC is the lowest concentration that inhibits growth of the organism. Read a low MIC as a more susceptible organism. The IC50 is the concentration that inhibits the measured activity by half. A higher IC50 goes with weaker potency.

Series [1] addresses T1, Albumin (Homo sapiens, UniProt P02768). Description: Binding affinity to HSA assessed as biomolecular quenching rate constant at pH 7.3 at 310 K by fluorescence assay. Type of series: ADME. The conditions noted are these: isolated protein.
Series [2] has as its target T1, Albumin. Description: Binding affinity to HSA assessed as Stern-Volmer quenching constant at pH 7.3 at 286 K by fluorescence assay. Type of series: ADME. The conditions noted are these: isolated protein.
Series [3] deals with Salmonella typhi. Description: Antibacterial activity against Salmonella typhi after 24 hrs by NCCLS micro broth dilution method. Type of series: functional, Salmonella enterica subsp. enterica serovar Typhi. The conditions noted are these: Salmonella enterica.
Series [4] concerns Cyberlindnera jadinii. Description: Antifungal activity against Candida utilis after 24 hrs by NCCLS micro broth dilution method. Type of series: functional. The conditions noted are these: Williopsis jadinii. A general note: Dilution methods test growth across graded concentrations, often in twofold steps.
Series [5] relates to Escherichia coli. Nature of the series: Antibacterial activity against Escherichia coli DH52 after 24 hrs by NCCLS micro broth dilution method. Type of series: functional. The conditions noted are these: DH52, 24 h.
The test system of series [6] is Shigella dysenteriae. Nature of the series: Antibacterial activity against Shigella dysenteriae after 24 hrs by NCCLS micro broth dilution method. Type of series: functional.
The test system of series [7] is Staphylococcus aureus. Description: Antibacterial activity against Staphylococcus aureus ATCC 25923 after 24 hrs by NCCLS micro broth dilution method. Type of series: functional. The conditions noted are these: ATCC 25923, 24 h.
Series [8] has as its target T1, Albumin. Description: Binding affinity to HSA assessed as Stern-Volmer quenching constant at pH 7.3 at 303 K by fluorescence assay. Type of series: ADME. The conditions noted are these: isolated protein.
Series [9] addresses T1, Albumin. Nature of the series: Binding affinity to HSA assessed as change in free energy at 310 K by Van't hoff plot analysis. Type of series: ADME. The conditions noted are these: isolated protein.
Series [10] addresses T1, Albumin. Nature of the series: Binding affinity to HSA assessed as change in entropy at 286 K by Van't hoff plot analysis. Type of series: ADME. The conditions noted are these: isolated protein.
In series [11] the test system is Escherichia coli. Nature of the series: Antibacterial activity against Escherichia coli JM109 after 24 hrs by NCCLS micro broth dilution method. Type of series: functional. The conditions noted are these: JM109, 24 h.
The target of series [12] is T1, Albumin. Description: Binding affinity to HSA assessed as biomolecular quenching rate constant at pH 7.3 at 303 K by fluorescence assay. Type of series: ADME. The conditions noted are these: isolated protein.
The target of series [13] is T1, Albumin. Description: Binding affinity to HSA assessed as change in free energy at 303 K by Van't hoff plot analysis. Type of series: ADME. The conditions noted are these: isolated protein.
Series [14] addresses T1, Albumin. Nature of the series: Binding affinity to HSA assessed as change in free energy at 286 K by Van't hoff plot analysis. Type of series: ADME. The conditions noted are these: isolated protein.
Series [15] has as its system Candida albicans. Description: Antifungal activity against Candida albicans ATCC 76615 after 24 hrs by NCCLS micro broth dilution method. Type of series: functional. The conditions noted are these: ATCC 76615, 24 h.
Series [16] concerns Pichia norvegensis. Nature of the series: Antifungal activity against Candida mycoderma after 24 hrs by NCCLS micro broth dilution method. Type of series: functional.
The target in series [17] is T1, Albumin. Description: Binding affinity to HSA assessed as change in enthalpy at 286 K by Van't hoff plot analysis. Type of series: ADME. The conditions noted are these: isolated protein.
The subject of series [18] is Micrococcus luteus. Nature of the series: Antibacterial activity against Micrococcus luteus ATCC 4698 after 24 hrs by micro broth dilution method. Type of series: functional. The conditions noted are these: ATCC 4698, 24 h.
Series [19] concerns Bacillus. Description: Antibacterial activity against Bacillus proteus ATCC 13315 after 24 hrs by NCCLS micro broth dilution method. Type of series: functional. The conditions noted are these: ATCC 13315, 24 h.
Series [20] relates to Calf thymus DNA. Nature of the series: Inhibition of neutral red binding to calf thymus DNA by UV-Visible absorption spectroscopy. Type of series: nucleic-acid assay. The conditions noted are these: Bos taurus.
The test system of series [21] is Staphylococcus aureus. Nature of the series: Antibacterial activity against methicillin-resistant Staphylococcus aureus N315 after 24 hrs by NCCLS micro broth dilution method. Type of series: functional. The conditions noted are these: N315, 24 h.
The target in series [22] is T1, Albumin. Description: Binding affinity to HSA assessed as biomolecular quenching rate constant at pH 7.3 at 286 K by fluorescence assay. Type of series: ADME. The conditions noted are these: isolated protein.
In series [23] the test system is Saccharomyces cerevisiae. Nature of the series: Antifungal activity against Saccharomyces cerevisiae after 24 hrs by NCCLS micro broth dilution method. Type of series: functional.
For series [24], the system named is Aspergillus flavus. Nature of the series: Antifungal activity against Aspergillus flavus after 24 hrs by NCCLS micro broth dilution method. Type of series: functional.
Series [25] deals with Pseudomonas aeruginosa. Nature of the series: Antibacterial activity against Pseudomonas aeruginosa ATCC 27853 after 24 hrs by NCCLS micro broth dilution method. Type of series: functional. The conditions noted are these: ATCC 27853, 24 h.
In series [26] the target is T1, Albumin. Nature of the series: Binding affinity to HSA assessed as Stern-Volmer quenching constant at pH 7.3 at 310 K by fluorescence assay. Type of series: ADME. The conditions noted are these: isolated protein.
For series [27], the system named is Bacillus subtilis. Description: Antibacterial activity against Bacillus subtilis ATCC 21216 after 24 hrs by NCCLS micro broth dilution method. Type of series: functional. The conditions noted are these: ATCC 21216, 24 h.
For series [28], the system named is Saccharomyces cerevisiae. Nature of the series: Potency index, ratio of fluconazole MIC to compound MIC for antifungal activity against Saccharomyces cerevisiae. Type of series: functional.
The subject of series [29] is MDA-MB-231. Description: Cytotoxicity against human MDA-MB-231 cells after 24 hrs by MTT assay. Type of series: cell-based. The conditions noted are these: MDA-MB-231, 24 h. For orientation: Tetrazolium assays rely on reduction of a dye to a coloured formazan, in cell work by metabolically active cells.

T1 sequence (P02768 whole entry): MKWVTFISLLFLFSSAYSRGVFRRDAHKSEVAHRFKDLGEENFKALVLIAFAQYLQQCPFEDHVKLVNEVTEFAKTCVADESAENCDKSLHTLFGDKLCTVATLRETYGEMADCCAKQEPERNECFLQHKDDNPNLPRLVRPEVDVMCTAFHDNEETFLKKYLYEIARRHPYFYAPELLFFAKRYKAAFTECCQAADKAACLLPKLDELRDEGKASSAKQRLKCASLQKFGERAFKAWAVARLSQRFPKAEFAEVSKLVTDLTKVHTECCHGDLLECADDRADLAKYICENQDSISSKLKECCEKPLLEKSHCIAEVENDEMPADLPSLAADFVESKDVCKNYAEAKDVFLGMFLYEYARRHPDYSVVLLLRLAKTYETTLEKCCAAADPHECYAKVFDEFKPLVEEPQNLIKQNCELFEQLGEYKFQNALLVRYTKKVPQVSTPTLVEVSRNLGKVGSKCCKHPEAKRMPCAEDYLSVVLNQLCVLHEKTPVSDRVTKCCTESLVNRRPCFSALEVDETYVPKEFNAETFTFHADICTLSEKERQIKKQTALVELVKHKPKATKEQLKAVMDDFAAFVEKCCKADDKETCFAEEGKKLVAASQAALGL

`CCOc1ccc2c(c1)sc1nc(-c3ccccc3)c(COCc3cn(Cc4ccc(Cl)c(Cl)c4)nn3)n12`: the Kq in series [1] stood at 5.34 ×10¹² L/mol/s; in [12], 5.53 ×10¹² L/mol/s; in [22] it was 6.36 ×10¹² L/mol/s. The KSV worked out at 4.04 ×10⁴ L/mol in [2], 3.54 ×10⁴ L/mol in [8] and 3.42 ×10⁴ L/mol in series [26]. The MIC in series [3] is 8 µg/mL (≈ 14.2 µM); in [4], 2 µg/mL (≈ 3.54 µM); in series [5], 32 µg/mL (≈ 56.7 µM); in series [6] it was 16 µg/mL (≈ 28.3 µM); in series [7] it was 16 µg/mL (≈ 28.3 µM); in series [11], 1 µg/mL (≈ 1.77 µM). For the same molecule, the MIC in series [15] was determined as 8 µg/mL (≈ 14.2 µM); in [16] it was 4 µg/mL (≈ 7.09 µM); in series [18] it was 2 µg/mL (≈ 3.54 µM); in [19], 8 µg/mL (≈ 14.2 µM); in series [21], 16 µg/mL (≈ 28.3 µM); in series [23], 16 µg/mL (≈ 28.3 µM). Also, the MIC in series [24] came out at 64 µg/mL (≈ 113 µM); in series [25] it was 4 µg/mL (≈ 7.09 µM); in series [27] it was 4 µg/mL (≈ 7.09 µM). Also, the deltaG is -6.0194 kcal/mol in [9], -5.9183 kcal/mol in [13] and -5.9113 kcal/mol in series [14]. The deltaS in series [10] is recorded as 60.5 J/mol.K. The deltaH in series [17] is -1.54 kcal/mol. Moreover, the inhibition entry in series [20] was “Dose-dependent effect”.
Turning to `CCCCCCn1cc(COCc2c(-c3ccccc3)nc3sc4ccccc4n23)nn1`, the Ratio in series [28] was 2. Also, the minimum inhibitory concentration (MIC) in [3] was determined as 16 µg/mL (≈ 35.9 µM); in series [4], 4 µg/mL (≈ 8.98 µM); in series [5] it was 32 µg/mL (≈ 71.8 µM); in series [6], 2 µg/mL (≈ 4.49 µM); in series [7], 8 µg/mL (≈ 18 µM); in [11], 32 µg/mL (≈ 71.8 µM). The MIC in [15] was 8 µg/mL (≈ 18 µM); in series [16] it was 32 µg/mL (≈ 71.8 µM); in [18] it was 2 µg/mL (≈ 4.49 µM); in [19], 8 µg/mL (≈ 18 µM); in [21] it was 16 µg/mL (≈ 35.9 µM); in series [23] it was 8 µg/mL (≈ 18 µM). Further, the minimal inhibitory concentration (MIC) amounted to 32 µg/mL (≈ 71.8 µM) in series [24], 16 µg/mL (≈ 35.9 µM) in [25] and 16 µg/mL (≈ 35.9 µM) in series [27].
For `CCOc1ccc2c(c1)sc1nc(-c3ccccc3)c(COCc3cn(Cc4cccc(F)c4)nn3)n12`, the minimal inhibitory concentration (MIC) was 32 µg/mL (≈ 62.3 µM) in [3]; 16 µg/mL (≈ 31.2 µM) in series [4]; 16 µg/mL (≈ 31.2 µM) in series [5]; 128 µg/mL (≈ 249 µM) in [6]; 128 µg/mL (≈ 249 µM) in series [7]; 128 µg/mL (≈ 249 µM) in series [11]. The MIC turned out to be 8 µg/mL (≈ 15.6 µM) in [15]; 16 µg/mL (≈ 31.2 µM) in series [16]; 128 µg/mL (≈ 249 µM) in series [18]; 64 µg/mL (≈ 125 µM) in series [19]; 16 µg/mL (≈ 31.2 µM) in [21]; 32 µg/mL (≈ 62.3 µM) in [23]. Also, the values for the minimum inhibitory concentration (MIC) in [24], in [25] and in series [27] were 64 µg/mL (≈ 125 µM), 64 µg/mL (≈ 125 µM) and 128 µg/mL (≈ 249 µM), respectively. This molecule also yielded a half-maximal inhibitory concentration (IC50) in series [29] below 100 µg/mL.
